The species named for one assay is Homo sapiens. In words: Selectivity index, ratio of IC50 for human recombinant MAOA to IC50 for human recombinant MAOB.
Assay [1] concerns the target T1, Amine oxidase [flavin-containing] B (Homo sapiens, UniProt P27338).
T1 sequence (P27338 whole entry): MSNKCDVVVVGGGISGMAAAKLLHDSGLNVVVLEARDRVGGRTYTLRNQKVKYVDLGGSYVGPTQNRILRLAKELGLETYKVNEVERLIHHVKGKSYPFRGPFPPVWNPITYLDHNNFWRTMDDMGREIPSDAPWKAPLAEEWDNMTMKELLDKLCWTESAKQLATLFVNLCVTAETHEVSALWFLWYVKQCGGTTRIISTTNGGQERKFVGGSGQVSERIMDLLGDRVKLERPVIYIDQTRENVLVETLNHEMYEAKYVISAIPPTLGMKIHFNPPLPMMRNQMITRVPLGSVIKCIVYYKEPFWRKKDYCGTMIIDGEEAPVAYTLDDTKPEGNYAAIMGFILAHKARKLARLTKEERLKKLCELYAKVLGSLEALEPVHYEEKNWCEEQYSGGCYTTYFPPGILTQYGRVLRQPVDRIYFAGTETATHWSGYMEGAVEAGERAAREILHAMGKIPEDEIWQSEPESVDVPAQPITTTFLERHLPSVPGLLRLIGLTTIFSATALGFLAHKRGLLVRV
In words: Inhibition of human recombinant MAOB assessed as conversion of kynuramine to 4-hydroxyquinoline preincubated for 15 mins by fluorimetric assay.

Assay [2] concerns the target T2, Amine oxidase [flavin-containing] A (Homo sapiens, UniProt P21397).
T2 sequence (P21397 whole entry): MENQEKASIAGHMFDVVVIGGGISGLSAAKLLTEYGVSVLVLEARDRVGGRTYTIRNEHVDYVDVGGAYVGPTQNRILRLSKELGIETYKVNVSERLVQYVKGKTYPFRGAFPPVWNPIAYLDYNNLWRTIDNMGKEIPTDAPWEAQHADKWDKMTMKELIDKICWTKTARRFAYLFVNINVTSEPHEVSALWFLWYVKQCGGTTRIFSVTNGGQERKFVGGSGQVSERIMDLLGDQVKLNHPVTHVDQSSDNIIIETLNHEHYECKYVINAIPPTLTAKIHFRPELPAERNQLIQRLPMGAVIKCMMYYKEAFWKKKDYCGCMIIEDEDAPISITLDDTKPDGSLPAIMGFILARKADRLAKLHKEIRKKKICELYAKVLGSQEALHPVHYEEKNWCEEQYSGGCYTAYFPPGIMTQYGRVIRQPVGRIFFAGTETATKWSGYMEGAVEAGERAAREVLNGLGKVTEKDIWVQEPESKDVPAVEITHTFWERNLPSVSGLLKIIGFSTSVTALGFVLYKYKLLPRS
In words: Inhibition of human recombinant MAOA assessed as conversion of kynuramine to 4-hydroxyquinoline preincubated for 15 mins by fluorimetric assay.

We go through four compounds from ChEMBL document CHEMBL1949666, “Inhibition of human monoamine oxidase A and B by 5-phenoxy 8-aminoquinoline analogs” (Bioorg Med Chem Lett, 2012).

A word on the IC50: it is the concentration at which inhibition is half-maximal.

For the compound `COc1cc(NC(C)CCCN)c2ncccc2c1` (stereo unspecified) [PRIMAQUINE], the Ratio IC50 in the assay listed under Homo sapiens stood at 0.8. The IC50 in assay [1] is 94.5 µM.

As for `COc1cc(NC(C)CCCN)c2nccc(C)c2c1Oc1cccc(F)c1` (stereo unspecified), in the assay filed under Homo sapiens, the Ratio IC50 is 0.3. The results for the IC50 in assay [1] and in assay [2] were 10.8 µM and 3.22 µM, respectively.

Take `COc1cc(NC(C)CCCN)c2nccc(C)c2c1Oc1ccc(F)cc1` (stereo unspecified): the Ratio IC50 in the assay listed under Homo sapiens turned out to be 0.29. In addition, the IC50 in assay [1] amounted to 33.4 µM; in assay [2] it was 9.7 µM.

In the case of `COc1cc(NC(C)CCCN)c2nccc(C)c2c1Oc1ccc(F)c(F)c1` (stereo unspecified), the Ratio IC50 in the assay listed under Homo sapiens came to 6.22. Also, the IC50 in assay [1] was found to be 3.65 µM; in assay [2] it was 22.7 µM.
